Source: US20090105172A1, “Stabilized Aptamers to PSMA and Their Use as Prostate Cancer Therapeutics” (priority 2005, published 2009)

Tests used:
ECD PSMA = biological target: T1, ECD PSMA (Homo sapiens, UniProt Q04609); test: Dot blot binding assay (nitrocellulose filter) with purified ECD PSMA; conditions: A9 minimer, without tRNA
T1 construct: vector-derived N-terminal linker […]; made in house; host or cells: 293 Freestyle cells, pSecTag2B vector
Excerpt: Protein Purification of ECD of PSMA: An I.M.A.G.E. clone (5202715) encoding full length recombinant human PSMA was purchased from Open Biosystems (Clone EHS1001-18533, Huntsville, Ala.). PCR was used to amplify the extracellular portion of the full length clone. An oligo with an N-terminal histidine tag was designed to engineer a construct which lacks the transmembrane domain residues 1-44. The his-tagged extracellular domain (ECD) was subcloned into the pSecTag2B expression vector (Invitrogen, Carlsbad, Calif.). The ECD of PSMA was purified in house from transfected 293 Freestyle cells (ATCC, Manassas, Va.). The amino acid sequence of the expressed protein comprising an N-terminal linker sequence of […] followed by eight Histidines is listed below: […] VSDr[…]a[…]r[…]rYV […] (SEQ ID NO 5)
Dot Blot Binding Analysis. Dot blot binding assays were performed throughout the selections to monitor the protein binding affinity of the pools. For initial pool screening, trace ^32P-labeled pool RNA was combined with PSMA and incubated at room temperature for 30 min in 1×SHMCK buffer pH 7.4 (20 mM Hepes pH 7.4, 120 mM NaCl, 5 mM KCl, 1 mM MgCl2, 1 mM CaCl2) plus 0.1 mg/mL tRNA in a final volume of 30 μl. The mixture was applied to a dot blot apparatus (Schleicher and Schuell Minifold-1 Dot Blot, Acrylic, Keene, N.H.), assembled (from top to bottom) with nitrocellulose, nylon, and gel blot membranes. RNA that is bound to protein is captured on the nitrocellulose filter; whereas the non-protein bound RNA is captured on the nylon filter. […] The Round 9 pool was cloned and screened in a single point dot blot assay using 100 nM PSMA (0 nM PSMA was used as a negative control). Clone transcripts were 5′ end labeled with ^32-P ATP. Likely binders were than assayed for KD determination by the blot assay conditions described directly above, but without tRNA, using an 8 point PSMA titration with a constant RNA concentration. […] Both of the clones screened were unique sequences in the Round 9 selection pool.
In order to identify the core structural elements required for ARC955 binding to PSMA, the 3′-boundaries of the clone was determined through alkaline hydrolysis. The parent RNA transcript was labeled at the 5′-end with γ-^32P ATP and T4 polynucleotide kinase. Radiolabeled ligands were subjected to partial alkaline hydrolysis and then selectively bound in solution to ECD PSMA (purified in house) at 100 nM before being passed through nitrocellulose filters (Centrex MF 1.5 mL, 0.45 μm, Schleicher & Schuell, Keene N.H.). Retained oligonucleotides were resolved on 8% denaturing polyacrylamide gels. The smallest oligonucleotide bound to PSMA defined the 3′-boundary. On the basis of the boundary experiments as well as visual inspection of predicted folds, truncated constructs were synthesized. Clones were then assayed by dot blot as previously described to determine their KD. […] The binding curve for ARC1091 in the dot blot assay is depicted in FIG. 5A, and the predicted secondary structure of ARC1091 is depicted in FIG. 5B. The KD and maximum % bound for the 3 minimized constructs with the overall highest PSMA affinity, as determined by a dot blot binding assay, are listed in Table 4. For the minimized rGmH aptamers described in Table 5 below, the guanosine triphosphates are 2′-OH and the adenosines triphosphates, cytidine triphosphates and uridine triphosphates are 2′-OMe. Unless noted otherwise, the individual sequences are represented in the 5′ to 3′ orientation. In some embodiments, the invention comprises aptamers with a nucleic acid sequence as described in Table 4 below. In some embodiments, the nucleic acid sequence of an aptamer described in Table 4 below additionally comprises a 3′ cap (e.g., an inverted dT cap), and/or 5′ amine (NH2) modification to facilitate chemical coupling, and/or conjugation to a high molecular weight, non-immunogenic compound (e.g., PEG). […]

LNCaP cells (PSMA+) = test: LNCaP FACS binding assay with fluorescein-labeled aptamers; assay type: cell-based; conditions: relative to parent A9
Method: To prepare aptamers for the FACS assay, PSMA aptamers were serially diluted (0-1 uM) in FACS buffer (1×DPBS w/Ca^++/Mg^++ (Gibco, Carlsbad, Calif.) supplemented with 10 mg/mL salmon sperm DNA & 0.2% Na Azide), in a V-bottom 96 well plate, at the concentrations to be tested. LNCaP and PC-3 cells (ATCC, Manassas, Va.) were harvested with trypsin, and 200,000 cells/well were counted, washed once with 1×DPBS (with Ca^++ and Mg^+) and resuspended in 200 μl of FACS Buffer. The 200 μl of cells in FACS buffer were added to individual wells of a new 96 well plate, pelleted by centrifugation (1300 rpm for 5 minutes), and resuspended in 100 μl of the appropriate concentration of diluted aptamer. FACS buffer, a-PSMA antibody (3C6) (Northwest Biotherapeutics, Bothell, Wash., Cat #: 60-5002) and an irrelevant fluorescein isothiocyanate (“FITC”) mouse IgG1 isotype control antibody (BD Pharmingen, San Diego, Calif., Cat#: 554679) were used as controls. The wells of aptamer/cell mixture were incubated at room temperature for 20-30 minutes.
After incubation, 180 μl of FACS buffer (plus 10 mg/mL ssDNA, and 0.2% Na Azide) was added to each well to quench the reaction and cells were pelleted by centrifugation.
Anti-fluorescein/Oregon Green®, rabbit IgG fraction, Alexa Fluor® 488 conjugate (Molecular Probes, Eugene, Oreg., Cat#: A11090) was diluted 1:100 in FACS buffer (100 μl/well) as the secondary antibody for the aptamer-FITC conjugates and FITC-mouse IgG isotype control. FITC Rat anti-mouse IgG1 (A85-1) (BD Pharmingen, San Diego, Calif., Cat#: 553443) was diluted in 1:100 in FACS Buffer as the secondary for the α-PSMA antibody. After centrifugation, the cell pellets were resuspended in 100 μl of the appropriate diluted secondary antibody, and incubated 10 minutes at room temperature. After incubation, 180 μl of FACS buffer was added to each well to quench the reaction, and cells were pelleted by centrifugation.
A tertiary antibody which recognizes the Alexa Fluor® 488 goat anti-rabbit IgG was prepared to further amplify the Alexa Fluor signal. Alexa Fluor® 488 goat anti-rabbit IgG (H+ L) (Molecular Probes, Eugene, Oreg., Cat#: A11034) was diluted 1:100 in FACS buffer, and the pelleted cells were resupsended in 100 μl of the tertiary antibody and incubated for 10 minutes at room temperature. […]
Cell samples were analyzed on a FACS Scan machine (Becton Dickinson, San Jose, Calif.) under the following parameters: FSC/SSC, FL-1/FSC, FL-3/FSC. The unstained and/or isotype controls were used to establish gating parameters, and the data was analyzed using Cell Quest Pro software version 5.1.1 (Becton Dickinson Immunocytometry Systems, San Jose, Calif.).

T1 sequence (Q04609 with tags, fused parts or gaps): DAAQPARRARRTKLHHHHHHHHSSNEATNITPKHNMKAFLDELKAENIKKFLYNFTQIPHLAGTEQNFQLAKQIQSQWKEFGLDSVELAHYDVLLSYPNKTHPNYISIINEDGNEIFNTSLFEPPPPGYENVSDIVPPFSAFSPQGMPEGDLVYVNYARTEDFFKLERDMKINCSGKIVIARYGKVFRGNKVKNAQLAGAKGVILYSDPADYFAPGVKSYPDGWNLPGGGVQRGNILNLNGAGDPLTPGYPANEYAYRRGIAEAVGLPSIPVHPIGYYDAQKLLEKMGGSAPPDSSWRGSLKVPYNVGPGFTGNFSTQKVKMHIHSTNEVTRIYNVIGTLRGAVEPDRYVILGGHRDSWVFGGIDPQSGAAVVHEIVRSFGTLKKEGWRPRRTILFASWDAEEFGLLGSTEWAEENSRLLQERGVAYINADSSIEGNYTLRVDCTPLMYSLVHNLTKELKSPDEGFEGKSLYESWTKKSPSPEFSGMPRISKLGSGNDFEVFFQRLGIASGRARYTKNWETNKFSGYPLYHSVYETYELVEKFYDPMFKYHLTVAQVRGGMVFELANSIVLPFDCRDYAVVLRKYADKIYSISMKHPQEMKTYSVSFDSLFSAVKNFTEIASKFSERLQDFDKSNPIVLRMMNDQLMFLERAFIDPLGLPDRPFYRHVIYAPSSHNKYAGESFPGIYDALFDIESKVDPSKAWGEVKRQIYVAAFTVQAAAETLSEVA

## GGAGGAfCfCGAAAAAGAfCfCfUGAfCfUfUfCfUAfUAfCfUAAGfUfCfUAfCGfUfUfCfCfUfCfCA (GGAGGACCGAAAAAGACCUGACUUCUAUACUAAGUCUACGUUCCUCCA; 2'-fluoro at 7, 8, 17, 18, 19, 22, 23, 24, 25, 26, 28, 30, 31, 35, 36, 37, 39, 41, 42, 43, 44, 45, 46, 47, other sugars and backbone not given here) [ARC591, 48-nt minimer of A9]
ECD PSMA
  Kd: 3.4 nM
LNCaP cells (PSMA+)
  functional activity in the LNCaP FACS assay: retained full functional activity
